Data as given in US9492428B2, “Compounds, compositions, pharmaceutical compositions, and methods of use” (University of Louisville Research Foundation, Inc., priority 2011, dated 2016).
Values after ≈ are worked out from the molar mass of the structure shown.

Experiments:
DU145 cells = test: MTT assay (cytotoxicity / cell proliferation) in DU145; assay type: cell-based, human; settings: Homo sapiens, DU-145; MTT assay, FIG. 4; read-out: GI50 against DU145
Experimental: (§1) FIG. 4. Bioassay of compound I-1, compound I-2, and compound I-3. SPA14-3-2 is pure compound I-2. SPA14-3-3 is pure compound I-3. SPA14-3-4 is pure compound I-1. MTT assays using compound I-1, compound I-2, and compound I-3 against DU145 and RWPE-1 cells lines.
FIG. 8. Cell proliferation assay. (A) DU145 or PC3 prostate cancer were plated at a density of 1,500 cells per well in 96-well plates and incubated 18 hours at 37° C. to allow adherence. They were untreated or treated by addition of different concentrations of compound I-1 (which were added directly to the medium) or vehicle (DMSO), and proliferation was measured using a 3-(4,5-dimethylthiazol-2-yl)-2,5-diphenyltetrazolium bromide MTT assay after 3 days of treatment. Points, mean of triplicate normalized samples to vehicle sample; bars, SE. (B) GI50 after 3 days of treatment. (C) Prostate cancer cells (DU145 or PC3) or a non-malignant epithelial cells (RWPE-1) were plated at a density of 1,000 cells per well in 96-well plates and incubated 18 hours at 37° C. to allow adherence. They were untreated or treated by addition of different concentrations of compound I-1 (added directly to the medium) or vehicle (DMSO), and proliferation was by MTT assay after 5 days of treatment. Points, mean of triplicate normalized samples to vehicle sample; bars, SE.
(§2) Isolation, NMR, and X-ray crystallographic analyses. Leaves, stems, and few fruits of Physalis angulate L (Solanaceae) were collected in Rio Domingusa. Kuith/Barranquita, Amazonas Department, Northeastern Peru, and identified by the team led by Walter Lewis (collection voucher 18597, Ext. 1159). Dried and grounded material (46 g) was extracted with ethanol (1 L, 95%) for 7 days. The evaporated crude extract (6.26 g) was denoted SPA. An aliquot (1.5 g) of SPA was partitioned between dichloromethane (40 mL) and water (40 mL), affording two fractions: organic (SPA1, 500 mg) and aqueous (SPA2, 600 mg). All MTT assays were performed as described in Bates et al. “G-Rich Oligonucleotides for Cancer Treatment” Chapter 21 of Methods in Molecular Biology, Gene Therapy of Cancer, Wolfgang Walther and Ulrike S. Stein (eds.), Vol. 542, 2009, Humana Press. […] SPA14-3 (30 mg) was treated on an HPLC using a reverse phase C18 column eluted in gradient mode of methanol and water (from 80% methanol to 100% methanol) and detected at 254 nm, yielding SPA14-3-1 (0 mg), SPA14-3-2 (1.2 mg of pure compound I-2), SPA14-3-3 (4.1 mg of pure compound I-3), and SPA14-3-4 (18 mg of pure compound I-1).
General Experimental Procedure. Compound I-1 was isolated as described in Example Set 1, above. For samples of compound I-1 used in Example Set 2, HPLC and NMR indicated a purity of at least 95%. All experiments described in Example Set 2 were repeated at least two or three times. […]

RWPE-1 cells = test: MTT assay (cytotoxicity) in RWPE-1; assay type: cell-based; settings: Homo sapiens, FIG. 4, read-out: GI50 against RWPE-1
Text: as §1, §2
General Experimental Procedure. Compound I-1 was isolated as described in Example Set 1, above. For samples of compound I-1 used in Example Set 2, HPLC and NMR indicated a purity of at least 95%. All experiments described in Example Set 2 were repeated at least two or three times. All MTT assays were performed according to Bates et al. “G-Rich Oligonucleotides for Cancer Treatment” Chapter 21 of Methods in Molecular Biology, Gene Therapy of Cancer, Wolfgang Walther and Ulrike S. Stein (eds.), Vol. 542, 2009, Humana Press.

Structure (SMILES) | GI50 (DU145 cells) [µg/mL] | GI50 (RWPE-1 cells) [µg/mL]
CC12C[C@@H]([C@@]34CC[C@@]5(O3)C3C(O4)[C@H]4O[C@]46CC=CC(=O)[C@]6(C)[C@H]3CC[C@]5(C)O)C(C[C@@]1(C)O)OC2=O (stereo partly shown) [I-3] | 3 (≈ 5.99 µM) | 3.3 (≈ 6.59 µM)
CC12C[C@@H]([C@@]34CC[C@@]5(O3)C3C(O4)[C@H]4O[C@]46CC=CC(=O)[C@]6(C)[C@H]3CC[C@@]5(C)O)C(C[C@@]1(C)O)OC2=O (stereo partly shown) [I-2] | 3.4 (≈ 6.79 µM) | 3 (≈ 5.99 µM)
